In US20120053076A1, “METHODS FOR IDENTIFICATION” (Cambridge Enterprise Limited, priority 2009, published 2012):

How the values were obtained:
[1] = Oral bioavailability; conditions: in vivo
[2] = biological target: T1, sstr2 (Homo sapiens, UniProt P30874); test: Equilibrium binding of [3H]-BN83250 to THP-1 cells; conditions: competition with [3H]-BN83250
T1 construct: with 1×10^6 THP-1 cells in Gey's Balanced Salt Solution; endogenous in cells; host or cells: THP-1 cells (whole cells, 4° C.)
Procedure: Methods: [^3H]-BN83250 was synthesesized from (S,E)-3-(2′,2′-dimethyldodec-4′-enoylamino)-caprolactam by catalytic hydrogenation using tritium gas over a palladium catalyst (CRB Ltd, Cleveland, UK), yielding the tritiated product at a concentration of […] in ethanol with a specific activity of 220 Ci/mmol. The (S,E)-3-(2′,2′-dimethyldodec-4′-enoylamino)-caprolactam was prepared as follows: (S,S)-3-amino-caprolactam hydro-pyrrolidine-5-carboxylate (10 mmol) and Na2CO3 (30 mmol) in water (30 ml) were added to a solution of 2,2-dimethyl-dodec-4-enoyl chloride (10 mmol) in dichloromethane (30 ml) at ambient temperature and the reaction was stirred for 12 hours. The organic layer was then separated and the aqueous phase was extracted with additional dichloromethane (2×25 ml). The combined organic layers were dried over Na2CO3 and reduced in vacuo. The residue was purified by silica column chromatography (1:1 EtOAc:hexanes to EtOAc) to give […]-3-(2′,2′-dimethyl-dodec-4′-enoyl)amino-caprolactam as a colourless oil (2.12 g, 63%). The radiolabelled compound was stored in the dark at 4° C. until required. Prior to use the specific activity was adjusted by addition of unlabelled BN83250.
For the analysis of binding, individual reactions were set up (in triplicate for each condition), with 1×10^6 THP-1 cells in Gey's Balanced Salt Solution, 10 nM [^3H]-BN83250 (at 50 Ci/mmol) and various concentrations of (S)-3(2′2′-dimethylpropionoylamino)-tetrahydropyridin-2-one (10 pM to 10 μM). Excess (100 μM) unlabelled BN83250 was used to determine the level of non-specific binding. After 2 hours at 4° C. (conditions previously shown to achieve equilibrium binding, and which prevent uptake of the radioligand that would result in an over-estimate of binding) excess label was washed away by centrifugation (3 washes with 5 ml of Gey's Balanced Salt Solution) and the bound radioactivity was determined by scintillation counting of the solubilised cell pellet.

T1 sequence (P30874 whole entry): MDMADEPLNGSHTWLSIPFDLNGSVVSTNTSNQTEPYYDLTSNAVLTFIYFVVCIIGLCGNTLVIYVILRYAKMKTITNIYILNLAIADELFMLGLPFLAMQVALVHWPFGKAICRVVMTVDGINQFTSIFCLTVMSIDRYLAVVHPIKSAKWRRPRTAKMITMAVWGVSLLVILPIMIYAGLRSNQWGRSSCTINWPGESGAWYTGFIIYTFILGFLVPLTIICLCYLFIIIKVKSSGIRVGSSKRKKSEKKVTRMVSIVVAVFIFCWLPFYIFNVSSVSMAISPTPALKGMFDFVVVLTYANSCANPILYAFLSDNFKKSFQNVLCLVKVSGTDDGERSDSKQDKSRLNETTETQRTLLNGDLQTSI

## (S)-3-(2′,2′-dimethyldodecanoyl)amino-caprolactam [BN83250]
[1]
  Oral bioavailability, in words: only poorly orally bioavailable

## CC(C)(C)C(=O)N[C@H]1CCCNC1=O [Valerolactam, (S)-3-(2′,2′-dimethylpropionoylamino)-tetrahydropyridin-2-one]
[2]
  Hill Slope: approximately −1.0
